# Entries after “also recorded” stand apart in the source; their conditions may differ.
# How the values were obtained:
# [1] = test system: pancreatic ductal adenocarcinoma (PDA); conditions: cited from earlier work
# RTK phosphorylation = assay: Phospho-RTK array analysis of KPFMC pancreatic tumors; type: in vivo, mice; conditions: gemcitabine treated KPFMC tumors
# Experimental: (§1) FIG. 3A depicts H&E sections of pancreatic tumors from KPFMC mice at clinical endpoint. The tumors were analyzed microscopically to identify intestinal invasion (upper panel). […] Expression values are depicted in the heat map. FIG. 3D is a bar graph showing the influence of gemcitabine treatment on the invasive behavior of tumor cells. The cells were analyzed by quantification of double positive E-cadherin and Fsp1 cells in tumor sections of mice treated with saline and gemcitabine until clinical endpoint.
# (§2) Expression values are depicted in the heat map. Mice were treated from day 30 after birth until day 51. […] FIG. 4C is an immunofluorescence image of a section from a saline treated KPFMC mouse pancreas co-stained with E-cadherin and Fsp1 showing high magnification view of cells that co-express both the epithelial and mesenchymal marker (left panel).
# Expression values are depicted in the heat map. Color intensities indicate the fold change with M402+gemcitabine combination therapy over M402. […] Tumor sections derived from mice treated with saline and gemcitabine until clinical endpoint were analyzed by quantification of cells positive for E-cadherin and Fsp1 in tumor. FIG. 5C is a bar graph showing the quantification of intact Islets of Langerhans (lower panel) from pancreatic tumors after the indicated treatments. […]
# [2] = test system: pancreatic tumors of KPFMC mice; assay: Histological examination of KPFMC pancreatic tumors for invasion (intestine, biliary tract); type: in vivo
# Experimental: as §1
# (§3) Tumor cells having increased Wnt/β-catenin signaling are known to be invasive. […] This observation supports that gemcitabine monotherapy results in an invasive tumor phenotype. To confirm that gemcitabine monotherapy results in an invasive tumor phenotype, a cohort of KPFMC mice were exposed to gemcitabine monotherapy (100 mg/kg), starting at day 45 after birth. The tumors were subsequently harvested at the clinical humane endpoint. […] This observation supports that gemcitabine monotherapy results in an invasive tumor phenotype.
# [3] = test system: Wnt/β-catenin signaling pathway; assay: Expression of members of the Wnt/β-catenin signaling pathway; type: in vivo; conditions: gemcitabine monotherapy
# Source text: FIGS. 6A and 6B depict the effect of gemcitabine treatment on the Wnt/β-catenin signaling pathway.
# FIGS. 7A and 7B depict the effect of pretreatment with M402 followed by subsequent gemcitabine/M402 combination treatment on the Wnt/β-catenin signaling pathway.
# as §3
# This observation supports that M402 inhibits the gemcitabine induced invasive tumor phenotype.
# [4] = test system: tumor cells undergoing EMT in KPFMC pancreatic tumors; assay: Quantification of tumor cells undergoing EMT (E-cadherin/Fsp1 double positive cells) in KPFMC tumor sections; type: in vivo, mice; conditions: gemcitabine vs saline, treated until clinical endpoint
# Experimental: as §2
# Expression values are depicted in the heat map. Color intensities indicate the fold change with M402+gemcitabine combination therapy over M402. FIG. 5B is a bar graph showing the influence of M402 treatment on the invasive behavior of tumor cells induced by gemcitabine. Tumor sections derived from mice treated with saline and gemcitabine until clinical endpoint were analyzed by quantification of cells positive for E-cadherin and Fsp1 in tumor. FIG. 5C is a bar graph showing the quantification of intact Islets of Langerhans (lower panel) from pancreatic tumors after the indicated treatments. (Means±SD are depicted; *P<0.05, NS P>0.05, Student's t test).
# Tumor cells having increased Wnt/β-catenin signaling are known to be invasive. […] This observation supports that gemcitabine monotherapy results in an invasive tumor phenotype. To confirm that gemcitabine monotherapy results in an invasive tumor phenotype, a cohort of KPFMC mice were exposed to gemcitabine monotherapy (100 mg/kg), starting at day 45 after birth. […]
structure (smiles),measurement,setting,value
Nc1ccn([C@@H]2O[C@H](CO)[C@@H](O)C2(F)F)c(=O)n1 [gemcitabine],overall survival,[1]; adjuvant gemcitabine post surgical removal of a pancreatic tumor,prolong overall survival
same,survival benefit,[1]; gemcitabine monotherapy in the absence of surgery,failed to show an extensive survival benefit
same,RTK phosphorylation in pancreatic tumors,RTK phosphorylation,increased the phosphorylation of several RTKs; also recorded: increase in RTK phosphorylation
same,biliary tract obstruction / obstructive jaundice (invasion into the biliary tree),"[2]; gemcitabine monotherapy 100 mg/kg from day 45, clinical endpoint",obstructive jaundice; also recorded: invasion increased
same,intestinal invasion of pancreatic tumors,"[2]; gemcitabine monotherapy 100 mg/kg from day 45 after birth, clinical endpoint, vs saline",increased invasion into the adjacent intestine; also recorded: number of mice with intestinal invasion increased
same,expression of members of the Wnt/β-catenin signaling pathway,[3],increases expression of several members of the Wnt/β-catenin signaling pathway
same,tumor cells undergoing EMT (E-cadherin/Fsp1 double positive cells),[4],increase in tumor cells undergoing EMT
